Data published in US8592460B2, “Amino-pyridine derivatives as S1P1 /EDG1 receptor agonists” (Actelion Pharmaceuticals Ltd., priority 2007, dated 2013).

Target: recombinant human S1P1 receptor (Homo sapiens, UniProt P21453)
Experiment: GTPγS assay to determine EC50 values
Type: biochemical
Conditions: agonistic activity; 35S-GTPγS binding, membrane preparations of CHO cells expressing recombinant human S1P1 receptor
Experimental: GTPγS binding assays are performed in 96 well microtiter plates (Nunc, 442587) in a final volume of 200 μl, using membrane preparations of CHO cells expressing recombinant human S1P1 receptor. Assay conditions are 20 mM Hepes (Fluka, 54461), 100 mM NaCl (Fluka, 71378), 5 mM MgCl2(Fluka, 63064), 0.1% BSA (Calbiochem, 126609), 1 μM GDP (Sigma, G-7127), 2.5% DMSO (Fluka, 41644), […] ^35S-GTPγS (Amersham Biosciences, SJ1320). The pH is 7.4. Test compounds are dissolved and diluted in 100% DMSO and pre-incubated at room temperature for 30 min in 150 μl of the above assay buffer, in the absence of ^35S-GTPγS. After addition of 50 μl of ^35S-GTPγS, the assay is incubated for 1 h at rt. The assay is terminated by transfer of the reaction mixture to a Multiscreen plate (Millipore, MAHFC1H60) using a cell harvester from Packard Biosciences, and the plates are washed with ice-cold 10 mM Na2HPO4/NaH2PO4 (70%/30%), dried, sealed at the bottom and, after addition of 25 μl MicroScint20 (Packard Biosciences, order#6013621), sealed on the top. Membrane-bound ^35S-GTPγS is measured with a TopCount from Packard Biosciences.
EC50 is the concentration of agonist inducing 50% of the maximal specific ^35S-GTPγS binding. Specific binding is determined by subtracting non-specific binding from maximal binding. Maximal binding is the amount of cpm bound to the Multiscreen plate in the presence of 10 μM of S1P. Non-specific binding is the amount of binding in the absence of an agonist in the assay.

Chain of recombinant human S1P1 receptor (P21453 whole entry): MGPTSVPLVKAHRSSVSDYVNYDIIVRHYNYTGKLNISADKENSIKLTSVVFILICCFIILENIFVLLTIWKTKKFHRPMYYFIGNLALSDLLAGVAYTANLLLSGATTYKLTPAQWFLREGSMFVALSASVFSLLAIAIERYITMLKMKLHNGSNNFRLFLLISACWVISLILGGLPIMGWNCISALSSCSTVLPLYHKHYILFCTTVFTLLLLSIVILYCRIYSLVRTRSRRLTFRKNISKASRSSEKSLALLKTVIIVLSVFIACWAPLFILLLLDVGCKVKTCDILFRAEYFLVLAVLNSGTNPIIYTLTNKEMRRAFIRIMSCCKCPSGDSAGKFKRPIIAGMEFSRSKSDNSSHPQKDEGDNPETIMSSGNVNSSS

EC50	SMILES
1.2 nM	CCc1cc(-c2noc(-c3cc(C)nc(N(CC)CC)c3)n2)cc(C)c1OCC(O)CO (racemic) [Example 15, rac-3-{4-[5-(2-Diethylamino-6-methyl-pyridin-4-yl)-[1,2,4]oxadiazol-3-yl]-2-ethyl-6-methyl-phenoxy}-propane-1,2-diol]
1.2 nM	CCc1cc(-c2nc(-c3cc(C)c(OCC(O)CNC(=O)CO)c(CC)c3)no2)cc(N(C)C)n1 (racemic) [Example 32, rac-N-(3-{4-[5-(2-Dimethylamino-6-ethyl-pyridin-4-yl)-[1,2,4]oxadiazol-3-yl]-2-ethyl-6-methyl-phenoxy}-2-hydroxy-propyl)-2-hydroxy-acetamide]
1.4 nM	CCc1cc(-c2nc(-c3cc(C)nc(N(CC)CC)c3)no2)cc(C)c1OC[C@H](O)CNC(=O)CO [Example 79, N—((R)-3-{4-[3-(2-diethylamino-6-methyl-pyridin-4-yl)-[1,2,4]oxadiazol-5-yl]-2-ethyl-6-methyl-phenoxy}-2-hydroxy-propyl)-2-hydroxy-acetamide]
3.4 nM	CCc1cc(-c2nnc(-c3cc(C)nc(N(CC)CC)c3)o2)cc(C)c1OC[C@@H](O)CNC(=O)CO [Example 87, N—((S)-3-{4-[5-(2-diethylamino-6-methyl-pyridin-4-yl)-[1,3,4]oxadiazol-2-yl]-2-ethyl-6-methyl-phenoxy}-2-hydroxy-propyl)-2-hydroxy-acetamide]
0.5 nM	CCN(CC)c1cc(-c2nc(-c3cc(C)c(OC[C@@H](O)CNC(=O)CO)c(Cl)c3)no2)cc(C)n1 [Example 109, N—((S)-3-{2-chloro-4-[5-(2-diethylamino-6-methyl-pyridin-4-yl)-[1,2,4]oxadiazol-3-yl]-6-methyl-phenoxy}-2-hydroxy-propyl)-2-hydroxy-acetamide]
2 nM	CCN(CC)c1cc(-c2nc(-c3cc(Cl)c(OC[C@H](O)CNC(=O)CO)c(OC)c3)no2)cc(C)n1 [Example 116, N—((R)-3-{2-chloro-4-[5-(2-diethylamino-6-methyl-pyridin-4-yl)-[1,2,4]oxadiazol-3-yl]-6-methoxy-phenoxy}-2-hydroxy-propyl)-2-hydroxy-acetamide]
0.1 nM	CCc1cc(-c2noc(-c3cc(C)nc(N(C)C(C)C)c3)n2)cc(C)c1OC[C@@H](O)CNC(=O)CO [Example 130, N—[(S)-3-(2-ethyl-4-{5-[2-(isopropyl-methyl-amino)-6-methyl-pyridin-4-yl]-[1,2,4]oxadiazol-3-yl}-6-methyl-phenoxy)-2-hydroxy-propyl]-2-hydroxy-acetamide]
2 nM	CCCc1cc(-c2noc(-c3cc(C)nc(N(C)C(C)C)c3)n2)cc(C)c1OC[C@@H](O)CNC(=O)CO [Example 139, 2-hydroxy-N—[(S)-2-hydroxy-3-(4-{5-[2-(isopropyl-methyl-amino)-6-methyl-pyridin-4-yl]-[1,2,4]oxadiazol-3-yl}-2-methyl-6-propyl-phenoxy)-propyl]-acetamide]
0.8 nM	Cc1cc(-c2nc(-c3cc(C)c(OC[C@@H](O)CNC(=O)CO)c(Cl)c3)no2)cc(N(C)C(C)C)n1 [Example 146, N—[(S)-3-(2-chloro-4-{5-[2-(isopropyl-methyl-amino)-6-methyl-pyridin-4-yl]-[1,2,4]oxadiazol-3-yl}-6-methyl-phenoxy)-2-hydroxy-propyl]-2-hydroxy-acetamide]
5.1 nM	COc1cc(OC[C@H](O)CNC(=O)CO)ccc1-c1noc(-c2cc(C)nc(N(C)C(C)C)c2)n1 [Example 159, 2-hydroxy-N—[(R)-2-hydroxy-3-(4-{5-[2-(isopropyl-methyl-amino)-6-methyl-pyridin-4-yl]-[1,2,4]oxadiazol-3-yl}-3-methoxy-phenoxy)-propyl]-acetamide]
0.2 nM	CCc1cc(-c2nc(-c3cc(C)c(OC[C@@H](O)CNC(=O)CO)c(CC)c3)no2)cc(N(C)C)n1 [Example 192, N—((S)-3-{4-[5-(2-dimethylamino-6-ethyl-pyridin-4-yl)-[1,2,4]oxadiazol-3-yl]-2-ethyl-6-methyl-phenoxy}-2-hydroxy-propyl)-2-hydroxy-acetamide]
0.5 nM	CCc1cc(-c2noc(-c3cc(C)nc(NC(C)C)c3)n2)cc(C)c1OC[C@@H](O)CNC(=O)CO [Example 203, N—((S)-3-{2-ethyl-4-[5-(2-isopropylamino-6-methyl-pyridin-4-yl)-[1,2,4]oxadiazol-3-yl]-6-methyl-phenoxy}-2-hydroxy-propyl)-2-hydroxy-acetamide]
4.1 nM	CCc1cc(-c2noc(-c3cc(C)nc(N(C)CC(C)C)c3)n2)cc(C)c1OC[C@@H](O)CNC(=O)CO [Example 232, N—[(S)-3-(2-ethyl-4-{5-[2-(isobutyl-methyl-amino)-6-methyl-pyridin-4-yl]-[1,2,4]oxadiazol-3-yl}-6-methyl-phenoxy)-2-hydroxy-propyl]-2-hydroxy-acetamide]

More lines, now with the values behind:

SMILES	EC50
CCc1cc(-c2noc(-c3cc(C)nc(N(CC)CC)c3)n2)cc(C)c1OCCN1CCC(C(=O)O)C1 (racemic) [Example 66, rac-1-(2-{4-[5-(2-Diethylamino-6-methyl-pyridin-4-yl)-[1,2,4]oxadiazol-3-yl]-2-ethyl-6-methyl-phenoxy}-ethyl)-pyrrolidine-3-carboxylic acid]	6.2 nM
Cc1cc(-c2nc(-c3cc(C)c(O)c(C)c3)no2)cc(N(C)C(C)C)n1 [Example 21, 4-{5-[2-(Isopropyl-methyl-amino)-6-methyl-pyridin-4-yl]-[1,2,4]oxadiazol-3-yl}-2,6-dimethyl-phenol]	3.6 nM
Cc1cc(-c2nc(-c3cc(C)c(OC[C@@H](O)CO)c(C)c3)no2)cc(N(C)C(C)C)n1 [Example 22, (S)-3-(4-{5-[2-(Isopropyl-methyl-amino)-6-methyl-pyridin-4-yl]-[1,2,4]oxadiazol-3-yl}-2,6-dimethyl-phenoxy)-propane-1,2-diol]	0.7 nM
CCc1cc(-c2noc(-c3cc(C)nc(N(C)C(C)C)c3)n2)cc(C)c1CCC(=O)NCCC(=O)O [Example 26, 3-[3-(2-Ethyl-4-{5-[2-(isopropyl-methyl-amino)-6-methyl-pyridin-4-yl]-[1,2,4]oxadiazol-3-yl}-6-methyl-phenyl)-propionylamino]-propionic acid]	2.6 nM
CCc1cc(-c2noc(-c3cc(C)nc(NC(C)C)c3)n2)cc(C)c1OC[C@H](O)CO [Example 198, (R)-3-{2-ethyl-4-[5-(2-isopropylamino-6-methyl-pyridin-4-yl)-[1,2,4]oxadiazol-3-yl]-6-methyl-phenoxy}-propane-1,2-diol]	2.4 nM

Same assay, conditions: agonistic activity; 35S-GTPγS binding, membranes of CHO cells expressing recombinant human S1P1 receptor

SMILES	EC50
CCc1cc(-c2noc(-c3cc(C)nc(N(C)CC(C)C)c3)n2)cc(C)c1OCC(O)CO (racemic) [Example 34, rac-3-(2-Ethyl-4-{5-[2-(isobutyl-methyl-amino)-6-methyl-pyridin-4-yl]-[1,2,4]oxadiazol-3-yl}-6-methyl-phenoxy)-propane-1,2-diol]	> 10000 nM
CCc1cc(-c2nnc(-c3cc(C)nc(N(CC)CC)c3)s2)cc(C)c1OC[C@@H](O)CO [Example 90]	> 10000 nM
CCc1cc(-c2nnc(-c3cc(C)nc(N(C)C(C)C)c3)s2)cc(C)c1OC[C@H](O)CO [Example 176]	> 10000 nM
CCc1cc(-c2nnc(-c3cc(C)nc(N(C)C(C)C)c3)s2)cc(C)c1OC[C@H](O)CN [Example 178]	> 10000 nM
CCc1cc(-c2nnc(-c3cc(C)nc(N(C)C(C)C)c3)s2)cc(C)c1OC[C@@H](O)CN [Example 179]	> 10000 nM
CCc1cc(-c2noc(-c3cc(C)nc(N4CCOCC4)c3)n2)cc(C)c1OC[C@H](O)CN [Example 208]	> 10000 nM
CCc1cc(-c2noc(-c3cc(C)nc(N4CCOCC4)c3)n2)cc(C)c1OC[C@@H](O)CN [Example 209]	> 10000 nM

System: circulating lymphocytes
Experiment: Assessment of in vivo efficacy: circulating lymphocytes after oral administration
Set-up: species or system rat
Conditions: 6 h after oral administration of 10 mg/kg to normotensive male Wistar rats, compared to vehicle-treated group; mean ± SEM
Experimental: The efficacy of the compounds of formula (I) is assessed by measuring the circulating lymphocytes after oral administration of 3 to 30 mg/kg of a compound of formula (I) to normotensive male Wistar rats. The animals are housed in climate-controlled conditions with a 12 h-light/dark cycle, and have free access to normal rat chow and drinking water. Blood is collected before and 3, 6 and 24 h after drug administration. Full blood is subjected to hematology using Advia Hematology system (Bayer Diagnostics, Zurich, Switzerland).
All data are presented as mean±SEM. Statistical analyses are performed by analysis of variance (ANOVA) using Statistica (StatSoft) and the Student-Newman-Keuls procedure for multiple comparisons. The null hypothesis is rejected when p<0.05.
Lymphocyte counts 6 h after oral administration have been measured for 39 of the 258 exemplified compounds and are in the range of −82% to −48% with an average of −65%.

SMILES	Lymphocyte counts
CCN(CC)c1cc(-c2nc(-c3cc(C)c(OC[C@@H](O)CO)c(C)c3)no2)cc(C)n1 [Example 11, (S)-3-{4-[5-(2-diethylamino-6-methyl-pyridin-4-yl)-[1,2,4]oxadiazol-3-yl]-2,6-dimethyl-phenoxy}-propane-1,2-diol]	−70 ± 2%
CCc1cc(-c2noc(-c3cc(C)nc(N(C)C(C)C)c3)n2)cc(C)c1OC[C@@H](O)CO [Example 24, (S)-3-(2-Ethyl-4-{5-[2-(isopropyl-methyl-amino)-6-methyl-pyridin-4-yl]-[1,2,4]oxa-diazol-3-yl}-6-methyl-phenoxy)-propane-1,2-diol]	−72 ± 1%
